Results from the NIST ThermoML archive (doi:10.1021/acs.jced.8b01204).

Experiment: xn = mol fraction of the nth substance listed
Conditions: 101 kPa, Liquid; for speed of sound: Single path-length method; for mass density: Vibrating tube method

C[N+]1(CC2CO2)CCCC1=O.O=C([O-])c1ccccc1O (stereo not given) [1-methyl-1-(oxiran-2-ylmethyl)-2-oxopyrrolidinium salicylate] + CCC(=O)O
Conditions | mass density, 293.15 K [kg/m3] | mass density, 298.15 K [kg/m3] | mass density, 303.15 K [kg/m3] | mass density, 308.15 K [kg/m3] | mass density, 313.15 K [kg/m3] | speed of sound, 293.15 K [m/s] | speed of sound, 298.15 K [m/s] | speed of sound, 303.15 K [m/s] | speed of sound, 308.15 K [m/s] | speed of sound, 313.15 K [m/s]
x1 = 0.0303 | 1018.7 | 1013.6 | 1008.2 | 1003.2 | 998 | 1211.9 | 1193.4 | 1175 | 1156.8 | 1138.9
x1 = 0.0701 | 1046.2 | 1041.2 | 1036.2 | 1031.3 | 1026.3 | 1266.7 | 1248.7 | 1230.8 | 1213.2 | 1195.8
x1 = 0.1006 | 1063.4 | 1058.6 | 1053.7 | 1048.9 | 1044 | 1303.5 | 1286 | 1268.5 | 1251.1 | 1233.7
x1 = 0.2 | 1105.7 | 1101.9 | 1096.5 | 1091.8 | 1087.2 | 1400.3 | 1383.3 | 1366.1 | 1349.2 | 1332.5
x1 = 0.3007 | 1133.9 | 1129.4 | 1124.9 | 1120.4 | 1115.9 | 1465.8 | 1449 | 1432 | 1415.3 | 1398.7
x1 = 0.4009 | 1153.6 | 1149.2 | 1144.8 | 1140.3 | 1135.9 | 1505.7 | 1488.9 | 1472 | 1455.4 | 1439
x1 = 0.501 | 1168.6 | 1164.2 | 1159.8 | 1155.4 | 1151 | 1538.8 | 1521.9 | 1505 | 1488.4 | 1472
x1 = 0.6002 | 1180.6 | 1176.3 | 1172 | 1167.6 | 1163.3 | 1565.4 | 1547.8 | 1530.9 | 1514.3 | 1497.9
x1 = 0.7002 | 1190.5 | 1186.2 | 1181.9 | 1177.6 | 1173.3 | 1584.5 | 1566.8 | 1549.5 | 1532.7 | 1516.3
x1 = 0.8005 | 1198.3 | 1194.1 | 1189.8 | 1185.5 | 1181.2 | 1599.7 | 1581.7 | 1564.2 | 1547.3 | 1530.8
x1 = 0.901 | 1204.6 | 1200.4 | 1196.1 | 1191.8 | 1187.5 | 1615.4 | 1596.4 | 1578.6 | 1561.5 | 1544.9
x1 = 1 | 1209.8 | 1205.5 | 1201.3 | 1197.2 | 1193 | 1634.2 | 1614.5 | 1595.7 | 1577.6 | 1559.5

C[N+]1(CC2CO2)CCCC1=O.O=C([O-])c1ccccc1O (stereo not given) [1-methyl-1-(oxiran-2-ylmethyl)-2-oxopyrrolidinium salicylate] + CC(=O)O
Conditions | mass density, 293.15 K [kg/m3] | mass density, 298.15 K [kg/m3] | mass density, 303.15 K [kg/m3] | mass density, 308.15 K [kg/m3] | mass density, 313.15 K [kg/m3] | speed of sound, 293.15 K [m/s] | speed of sound, 298.15 K [m/s] | speed of sound, 303.15 K [m/s] | speed of sound, 308.15 K [m/s] | speed of sound, 313.15 K [m/s]
x1 = 0.0301 | 1080.9 | 1075.6 | 1070.3 | 1065 | 1059.7 | 1250 | 1232.7 | 1215.5 | 1198.6 | 1181.8
x1 = 0.0701 | 1103.7 | 1098.6 | 1093.5 | 1088.4 | 1083.3 | 1310.7 | 1294 | 1277.3 | 1260.7 | 1244.4
x1 = 0.1001 | 1117.2 | 1112.3 | 1107.3 | 1102.4 | 1097.4 | 1349.7 | 1333.2 | 1316.5 | 1300.1 | 1283.9
x1 = 0.2001 | 1147.6 | 1143 | 1138.3 | 1133.6 | 1128.8 | 1441 | 1424.6 | 1408.1 | 1391.8 | 1375.7
x1 = 0.3003 | 1166.3 | 1161.7 | 1157.2 | 1152.7 | 1148.9 | 1496.7 | 1480.2 | 1463.7 | 1447.5 | 1431
x1 = 0.4013 | 1178.7 | 1174.2 | 1169.7 | 1165.5 | 1161 | 1535 | 1515.8 | 1497.4 | 1480.2 | 1463.1
x1 = 0.5017 | 1187.3 | 1183 | 1178.7 | 1174.5 | 1170.1 | 1561.4 | 1541.8 | 1523.2 | 1504.9 | 1488.8
x1 = 0.6002 | 1193.9 | 1189.6 | 1185.4 | 1181.3 | 1177 | 1582.2 | 1562.5 | 1542.9 | 1528.5 | 1515.4
x1 = 0.7019 | 1199.1 | 1194.9 | 1190.7 | 1186.7 | 1182.5 | 1600 | 1582 | 1565.2 | 1548.8 | 1532.6
x1 = 0.8024 | 1203.6 | 1199.3 | 1195.1 | 1191 | 1186.7 | 1617.3 | 1600 | 1583 | 1566.5 | 1550.4
x1 = 0.901 | 1207 | 1202.7 | 1198.6 | 1194.5 | 1190.2 | 1626.8 | 1609.2 | 1592.2 | 1575.7 | 1559.5
x1 = 1 | 1209.8 | 1205.5 | 1201.3 | 1197.2 | 1193 | 1634.2 | 1614.5 | 1595.7 | 1577.6 | 1559.5
